Data: the NIST ThermoML archive (doi:10.1016/j.fluid.2018.05.028)

Tests used:
[1] = refractive index (Na D-line) (dimensionless); conditions: 101 kPa, Liquid, Standard Abbe refractometry
[2] = 101 kPa, Liquid; for viscosity: Concentric cylinders viscometry; for speed of sound: Single path-length method; for mass density: Vibrating tube method
[3] = xn = mol fraction of the nth substance listed; conditions: 101 kPa, Liquid, x1 = 1; for viscosity: Concentric cylinders viscometry; for speed of sound: Single path-length method; for mass density: Vibrating tube method
[4] = refractive index (Na D-line) (dimensionless); xn = mol fraction of the nth substance listed; conditions: 101 kPa, Liquid, Standard Abbe refractometry, x1 = 1

CCCCCCCCCCCCCCCC [hexadecane]
Conditions | mass density, [2] [kg/m3] | refractive index, [1] | speed of sound, [2] [m/s] | viscosity, [2] [mPa·s]
298.15 K | 769.87 | 1.4318 | 1338.5 | 3.035
303.15 K | 766.4 | 1.4296 | 1319.8 | 2.708
308.15 K | 762.95 | 1.4275 | 1301.3 | 2.432

CCCCO [butan-1-ol] + CCCCCCCCCCCCCCCC
Conditions | mass density, [3] [kg/m3] | refractive index, [4] | speed of sound, [3] [m/s] | viscosity, [3] [mPa·s]
293.15 K | 809.8 | 1.3999 | 1256.6 | 2.868
298.15 K | 805.98 | 1.3979 | 1239.6 | 2.531
303.15 K | 802.13 | 1.3959 | 1222.8 | 2.232
308.15 K | 798.25 | 1.3938 | 1206 | 1.975
313.15 K | 794.35 | 1.3918 | 1189.4 | 1.758
318.15 K | 790.41 | 1.3897 | 1172.8 | 1.563
323.15 K | 786.42 | 1.3876 | 1156.2 | 1.399
328.15 K | 782.39 | 1.3855 | 1139.7 | 1.256
333.15 K | 778.3 | 1.3833 | 1123.2 | 1.131
338.15 K | 774.15 | 1.381 | 1106.6 | 1.021
343.15 K | 769.94 | 1.3788 | 1090.1 | 0.925

CCCCO [butan-1-ol]
Conditions | mass density, [2] [kg/m3] | refractive index, [1] | speed of sound, [2] [m/s] | viscosity, [2] [mPa·s]
298.15 K | 805.98 | 1.3979 | 1239.6 | 2.531
303.15 K | 802.13 | 1.3959 | 1222.8 | 2.232
308.15 K | 798.25 | 1.3938 | 1206 | 1.975

CCCO [propan-1-ol]
Conditions | mass density, [2] [kg/m3] | refractive index, [1] | speed of sound, [2] [m/s] | viscosity, [2] [mPa·s]
298.15 K | 799.93 | 1.3831 | 1205.7 | 1.926
303.15 K | 795.89 | 1.381 | 1188.6 | 1.716
308.15 K | 791.82 | 1.3789 | 1171.6 | 1.532
